Source: patent US20250352658A1, “COMBINATION THERAPY USING ANTIBODY-DRUG CONJUGATES” (ADC THERAPEUTICS SA, priority 2021, published 2025)
Square brackets hold non-standard residues; d marks the D form. Peptide text beside a SMILES is read from it. * marks the point of attachment. Dolaproine = CO[C@@H]([C@@H]1CCCN1)[C@@H](C)C(=O)O; Dil = CC[C@H](C)[C@H](NC)[C@@H](CC(=O)O)OC; X1 = C[C@@H](N*)[C@@H](O)c1ccccc1; NMeV = CN[C@H](C(=O)O)C(C)C

Test system: TMD8 cells
Test: CellTiterGlo viability assay, SG3199 and MMAE combination, TMD8
Type: cell-based
Details: for Fa (fraction affected) / CI (combination index): 24 hours
Experimental: We tested a combination of the warheads alone used in CD19xADC (PBD SG3199) and CD79bxADC (monomethyl auristatin E (MMAE)). This was performed essentially as per Example 1, in TMD8 cells. Cells were seeded at a density of 50,000 cells/mL. […]
Cells were incubated for 24 hours and then viability was measured with CellTiterGlo assay.
For analysis of the results, data were first blank corrected (average of blank of the 3 replicates was subtracted from each data value). For GraphPad analysis, each replicate was normalized over the untreated cells (average of the 3 replicates). Data were analysed by GraphPad Prism to generate a dose response curve with Log drug concentration on X-axis and cell viability (%) on Y-axis. For CalcuSyn analysis, the average of the 3 replicates was corrected over the untreated cells.

[1] = SG3199 0.06 pM + MMAE 0.08 ng/ml
[2] = SG3199 0.06 pM + MMAE 0.2 ng/ml
[3] = SG3199 0.06 pM + MMAE 0.6 ng/ml
[4] = SG3199 0.06 pM + MMAE 1.9 ng/ml
[5] = SG3199 0.06 pM + MMAE 5.6 ng/ml
[6] = SG3199 0.23 pM + MMAE 0.08 ng/ml
[7] = SG3199 0.23 pM + MMAE 0.2 ng/ml
[8] = SG3199 0.23 pM + MMAE 0.6 ng/ml
[9] = SG3199 0.23 pM + MMAE 1.9 ng/ml
[10] = SG3199 0.23 pM + MMAE 5.6 ng/ml
[11] = SG3199 0.90 pM + MMAE 0.08 ng/ml
[12] = SG3199 0.90 pM + MMAE 0.2 ng/ml
[13] = SG3199 0.90 pM + MMAE 0.6 ng/ml
[14] = SG3199 0.90 pM + MMAE 1.9 ng/ml
[15] = SG3199 0.90 pM + MMAE 5.6 ng/ml
[16] = SG3199 3.6 pM + MMAE 0.08 ng/ml
[17] = SG3199 14.4 pM + MMAE 0.08 ng/ml
[18] = SG3199 14.4 pM + MMAE 0.2 ng/ml
[19] = SG3199 14.4 pM + MMAE 0.6 ng/ml
[20] = SG3199 14.4 pM + MMAE 1.9 ng/ml
[21] = SG3199 14.4 pM + MMAE 5.6 ng/ml
[22] = SG3199 57.5 pM + MMAE 0.08 ng/ml
[23] = SG3199 57.5 pM + MMAE 0.2 ng/ml
[24] = SG3199 57.5 pM + MMAE 0.6 ng/ml
[25] = SG3199 57.5 pM + MMAE 1.9 ng/ml
[26] = SG3199 57.5 pM + MMAE 5.6 ng/ml
[27] = SG3199 230 pM + MMAE 0.08 ng/ml

COc1cc2c(cc1OCCCCCOc1cc3c(cc1OC)C(=O)N1C=C(C)C[C@H]1C=N3)N=C[C@@H]1CC(C)=CN1C2=O [SG3199, reference compound]
Fa (fraction affected) (SG3199 0.06 pM alone (MMAE 0)): 0.12
Fa (fraction affected) (SG3199 0.23 pM alone (MMAE 0)): 0.16
Fa (fraction affected) (SG3199 0.90 pM alone (MMAE 0)): 0.15
Fa (fraction affected) (SG3199 3.6 pM alone (MMAE 0)): 0.15
Fa (fraction affected) (SG3199 14.4 pM alone (MMAE 0)): 0.19
Fa (fraction affected) (SG3199 57.5 pM alone (MMAE 0)): 0.23
Fa (fraction affected) (SG3199 230 pM alone (MMAE 0)): 0.46

CC[C@H](C)[C@@H]([C@@H](CC(=O)N1CCC[C@H]1[C@H](OC)[C@@H](C)C(=O)N[C@H](C)[C@@H](O)c1ccccc1)OC)N(C)C(=O)[C@@H](NC(=O)[C@@H](NC)C(C)C)C(C)C.COc1cc2c(cc1OCCCCCOc1cc3c(cc1OC)C(=O)N1C=C(C)C[C@H]1C=N3)N=C[C@@H]1CC(C)=CN1C2=O [SG3199 + MMAE] (H-[NMeV]V[Dil][Dolaproine]-X1)
CI (combination index) [1]: 1.65
Fa (fraction affected) [1]: 0.12
CI (combination index) [2]: 2.06
Fa (fraction affected) [2]: 0.13
CI (combination index) [3]: 0.53
Fa (fraction affected) [3]: 0.27
CI (combination index) [4]: 0.79
Fa (fraction affected) [4]: 0.32
CI (combination index) [5]: 1.23
Fa (fraction affected) [5]: 0.38
CI (combination index) [6]: 434.19
Fa (fraction affected) [6]: 0.05
CI (combination index) [7]: 2.22
Fa (fraction affected) [7]: 0.14
CI (combination index) [8]: 0.40
Fa (fraction affected) [8]: 0.29
CI (combination index) [9]: 1.18
Fa (fraction affected) [9]: 0.29
CI (combination index) [10]: 0.98
Fa (fraction affected) [10]: 0.40
CI (combination index) [11]: 0.58
Fa (fraction affected) [11]: 0.19
CI (combination index) [12]: 2.08
Fa (fraction affected) [12]: 0.16
CI (combination index) [13]: 0.29
Fa (fraction affected) [13]: 0.31
CI (combination index) [14]: 0.83
Fa (fraction affected) [14]: 0.32
CI (combination index) [15]: 0.85
Fa (fraction affected) [15]: 0.41
CI (combination index) [16]: 5.16
Fa (fraction affected) [16]: 0.16
CI (combination index) (SG3199 3.6 pM + MMAE 0.2 ng/ml): 69.07
Fa (fraction affected) (SG3199 3.6 pM + MMAE 0.2 ng/ml): 0.11
CI (combination index) (SG3199 3.6 pM + MMAE 0.6 ng/ml): 1.26
Fa (fraction affected) (SG3199 3.6 pM + MMAE 0.6 ng/ml): 0.23
CI (combination index) (SG3199 3.6 pM + MMAE 1.9 ng/ml): 1.36
Fa (fraction affected) (SG3199 3.6 pM + MMAE 1.9 ng/ml): 0.28
CI (combination index) (SG3199 3.6 pM + MMAE 5.6 ng/ml): 1.93
Fa (fraction affected) (SG3199 3.6 pM + MMAE 5.6 ng/ml): 0.34
CI (combination index) [17]: 12.16
Fa (fraction affected) [17]: 0.17
CI (combination index) [18]: 18.45
Fa (fraction affected) [18]: 0.16
CI (combination index) [19]: 0.60
Fa (fraction affected) [19]: 0.29
CI (combination index) [20]: 1.32
Fa (fraction affected) [20]: 0.29
CI (combination index) [21]: 1.12
Fa (fraction affected) [21]: 0.39
CI (combination index) [22]: 0.22
Fa (fraction affected) [22]: 0.34
CI (combination index) [23]: 0.39
Fa (fraction affected) [23]: 0.33
CI (combination index) [24]: 0.23
Fa (fraction affected) [24]: 0.37
CI (combination index) [25]: 0.30
Fa (fraction affected) [25]: 0.42
CI (combination index) [26]: 0.37
Fa (fraction affected) [26]: 0.49
CI (combination index) [27]: 0.03
Fa (fraction affected) [27]: 0.47
CI (combination index) (SG3199 230 pM + MMAE 0.2 ng/ml): 0.02
Fa (fraction affected) (SG3199 230 pM + MMAE 0.2 ng/ml): 0.51
CI (combination index) (SG3199 230 pM + MMAE 0.6 ng/ml): 0.03
Fa (fraction affected) (SG3199 230 pM + MMAE 0.6 ng/ml): 0.54
CI (combination index) (SG3199 230 pM + MMAE 1.9 ng/ml): 0.04
Fa (fraction affected) (SG3199 230 pM + MMAE 1.9 ng/ml): 0.59
CI (combination index) (SG3199 230 pM + MMAE 5.6 ng/ml): 0.09
Fa (fraction affected) (SG3199 230 pM + MMAE 5.6 ng/ml): 0.62
median Chou-Talalay combination index (CI) (TMD8, 24 hours, <0.9 indicates synergy): 0.85

CC[C@H](C)[C@@H]([C@@H](CC(=O)N1CCC[C@H]1[C@H](OC)[C@@H](C)C(=O)N[C@H](C)[C@@H](O)c1ccccc1)OC)N(C)C(=O)[C@@H](NC(=O)[C@@H](NC)C(C)C)C(C)C [MMAE, monomethyl auristatin E, reference compound] (H-[NMeV]V[Dil][Dolaproine]-X1)
Fa (fraction affected) (MMAE 0.08 ng/ml alone (SG3199 0)): 0.11
Fa (fraction affected) (MMAE 0.2 ng/ml alone (SG3199 0)): 0.17
Fa (fraction affected) (MMAE 0.6 ng/ml alone (SG3199 0)): 0.27
Fa (fraction affected) (MMAE 1.9 ng/ml alone (SG3199 0)): 0.29
Fa (fraction affected) (MMAE 5.6 ng/ml alone (SG3199 0)): 0.38
